Reference: patent US20060134048A1, “Reduction of hair growth” (priority 2004, published 2006)

Legend:
Human hair follicles = assay: Human hair follicle growth assay; assay type: cell-based; conditions: 24 hours pre-incubation with 0.1 mM caffeine, then laser 0.75W for 100 msec; hair shaft growth after four to six days
Protocol: Human Hair Follicle Growth Assay:
Human hair follicles in growth phase (anagen) were isolated from face-lift tissue (obtained from plastic surgeons) under dissecting scope using a scalpel and watchmakers forceps. The skin was sliced into thin strips exposing 2-3 rows of follicles that could readily be dissected. Follicles were placed into 0.5 ml William's E medium (Life Technologies, Gaithersburg, Md.) supplemented with 2 mM L-glutamine, 10 μg/ml insulin, 10 ng/ml hydrocortisone, 100 units of penicillin, 0.1 mg/ml streptomycin and 0.25 μg/ml amphotericin B. The follicles were incubated in 24-well plates (1 follicle/well) at 37° C. in an atmosphere of 5% CO2 and 95% air. The HSP inhibitor or compound that promotes apoptosis is dissolved into dimethyl sulfoxide as 100-fold stock solution. […] The length of hair follicle was assessed using an image analysis software system. The growth of hair fiber was calculated by the subtracting the follicle length on day 0 from that determined on day 7.
Hair follicles were pre-incubated for 24 hours with 0.1 mM concentration of caffeine, and then some of the follicles were laser treated at 0.75W for 100 msec using a Coherent diode laser system. The length of each follicle was measured and the follicles then were placed in a 37° C. incubator for four to six days. Following incubation the hair shaft growth was measured.

hamster flank organs = assay: Golden Syrian Hamster assay; assay type: in vivo, Golden Syrian hamsters
Protocol: To evaluate the effectiveness of a composition in reducing hair growth (including when used in conjunction with heating), the flank organs of each of a group of hamsters are depilated by applying a thioglycolate based chemical depilatory (Surgex) and/or shaved. To one organ of each animal 10 μl. of vehicle alone once a day is applied, while to the other organ of each animal an equal amount of vehicle containing the HSP inhibitor or compound that promotes apoptosis under evaluation is applied. After three weeks of topical applications (one application per day for five days a week), with heating at a selected time(s) if the composition is used in conjunction with heating) the flank organs are shaved and the amount of recovered hair (hair mass) from each is weighed. Percent-reduction of hair growth is calculated by subtracting the hair mass (mg) value of the test compound treated side from the hair mass value of the vehicle treated side; the delta value obtained is then divided by the hair mass value of the vehicle treated side, and the resultant number is multiplied by 100. A composition including a vehicle 15% DMSO, 65% ethanol, 10% propylene glycol, and 10% di-propylene glycol and 5% quercetin by weight was tested in the Golden Syrian Hamster assay. […]

Row | SMILES | reduction in hair growth compared with the control group (Human hair follicles) | hair growth inhibition (hamster flank organs; 5% quercetin for four days prior to 15W/0.75 sec laser, compared to flank organs given the same laser pulse without quercetin pretreatment) | hair growth inhibition (hamster flank organs; 5% quercetin topical only, three weeks, compared to vehicle control flank organs)
1 | Cn1c(=O)c2c(ncn2C)n(C)c1=O [caffeine] | significant reduction in hair growth | – | –
2 | O=c1c(O)c(-c2ccc(O)c(O)c2)oc2cc(O)cc(O)c12 [quercetin] | – | 36% | 15%
